Data reported in the NIST ThermoML archive (doi:10.1016/j.fluid.2013.12.017).

Experiment: molar heat capacity at constant pressure; xn = mol fraction of the nth substance listed
Settings: 101 kPa, Liquid, Small sample (50 mg) DSC

CCC(N)(CO)CO [2-amino-2-ethyl-1,3-propanediol] + O
molar heat capacity at constant pressure [J/K/mol]
Settings | x1 = 0.1494 | x1 = 0.3002 | x1 = 0.4502 | x1 = 0.5992 | x1 = 0.7505 | x1 = 0.8989 | x1 = 1
303.15 K | 107.2 | 141.9 | 178.1 | 216.5 | 260.2 | 314.7 | 367.5
308.15 K | 108.6 | 143.7 | 180.3 | 219.2 | 263.4 | 318.5 | 370.5
313.15 K | 110 | 145.5 | 182.5 | 221.9 | 266.6 | 322.3 | 374.1
318.15 K | 111.3 | 147.3 | 184.7 | 224.7 | 269.9 | 325.9 | 378
323.15 K | 112.7 | 149.1 | 186.9 | 227.4 | 273.1 | 329.6 | 381.5
328.15 K | 113.8 | 151 | 189.1 | 230.1 | 276.4 | 333.3 | 385.8
333.15 K | 115.5 | 152.8 | 191.3 | 232.8 | 279.6 | 337 | 389.9
338.15 K | 116.8 | 154.6 | 193.5 | 235.6 | 282.8 | 340.7 | 393.9
343.15 K | 118.3 | 156.5 | 195.7 | 238.3 | 286.1 | 344.4 | 398.6
348.15 K | 119.6 | 158.3 | 197.9 | 241 | 289.3 | 348.3 | 403.1
353.15 K | 121.3 | 160.2 | 200.2 | 243.8 | 292.6 | 352 | 408.2
